# Several values for one entry are separate records, joined by “and”; a condition that tells them apart may be missing. Equal values may be shown once.
# Key:
# Type in all cases: in vivo, human
# [1] = test system: children with NS; test: Hospitalizations, edema, hypoglycemia and side effects on pioglitazone
# Excerpt: (§1) In the following clinical studies, the efficacy and safety of adding pioglitazone to reduce proteinuria in children with NS was examined. All children with NS identified worldwide to have been treated with pioglitazone were included, with no patients excluded. Each patient had pioglitazone added to their other NS medications at the discretion of their treating pediatric nephrologist. All patient records were reviewed in a de-identified manner, with prior ethics committee approval at each institution. Data were analyzed based on defined time periods before and after the addition of pioglitazone. Patients were defined as having responded to pioglitazone (i.e., Responders) if their urine protein to creatinine ratio (UPCR, mg/mg) decreased from the period 0-1 month pre-pioglitazone to the period 0-1 month post-pioglitazone. Glomerular filtration rate estimation (eGFR) in patients <18 years was calculated using the revised Schwartz equation. In patients >18 years, eGFR was calculated as the mean of the revised Schwartz and CKD-EPI creatinine equations. Quantitative data, such as patient age, duration of NS, pioglitazone dosage, and outcomes of UPCR, TIS, and serum albumin, were summarized as means (standard errors of mean), while categorical data such as renal survival status were summarized as frequency (percent). Due to a small sample size, Responders and Non-responders were compared using Wilcoxon Rank Sum tests on quantitative variables and Fisher's exact tests on categorical variables. For both Responders and Non-responders, pre-pioglitazone to post-pioglitazone initiation changes in UPCR, TIS, and serum albumin levels were analyzed using Wilcoxon Signed Rank tests. Numbers of hospitalizations pre-pioglitazone and post-pioglitazone initiation were analyzed and compared using Poisson distributions. Statistical significance was assessed at both the 0.05 and 0.10 levels. All analyses were conducted using SPSS software ver. 26 (IBM, Armonk, NY, USA).
# [2] = test system: children with NS; test: Renal survival, renal function, remission and prednisone taper on pioglitazone
# Excerpt: as §1
# [3] = test system: children with NS; test: Proteinuria (urine protein to creatinine ratio, UPCR) before and after addition of pioglitazone
# Excerpt: as §1
# [4] = Patient 1 (Responder), pre-PIO 8.5
# [5] = Patient 1 (Responder), vs 0-1 mo pre-PIO
# [6] = Patient 2 (Responder), pre-PIO 6
# [7] = Patient 2 (Responder), vs 0-1 mo pre-PIO
# [8] = Patient 3 (Responder), pre-PIO 11.2
# [9] = Patient 3 (Responder), vs 0-1 mo pre-PIO
# [10] = Patient 5 (Non-responder), pre-PIO 0.46
# [11] = Patient 5 (Non-responder), vs 0-1 mo pre-PIO
# [12] = Patient 6 (Responder), pre-PIO 2.16
# [13] = Patient 6 (Responder), vs 0-1 mo pre-PIO
# [14] = Patient 7 (Non-responder), pre-PIO 7.5
# [15] = Patient 7 (Non-responder), vs 0-1 mo pre-PIO
# [16] = Patient 8 (Responder), pre-PIO 4.66
# [17] = Patient 8 (Responder), vs 0-1 mo pre-PIO
# [18] = mean of 5 Responders, pre-PIO 6.50
# [19] = mean of 5 Responders, vs 0-1 mo pre-PIO
smiles,measurement,setting,value
CCc1ccc(CCOc2ccc(CC3SC(=O)NC3=O)cc2)nc1 (centres unmarked) [pioglitazone],required hospitalizations,"[1]; 5 Responders, post-pioglitazone, 11 pre-pioglitazone",none
same,side effects attributable to pioglitazone,"[1]; Patient 1, 7-month PIO treatment, 15 then 30 mg QD",No side effects attributable to pioglitazone were noted
same,side effects attributable to pioglitazone,"[1]; Patient 2, 4-month treatment, 15 mg QD",no side effects attributable to pioglitazone noted
same,side effects attributable to pioglitazone,"[1]; Patient 3, 19-month course",No side effects attributable to pioglitazone were noted
same,side effects attributable to pioglitazone,"[1]; Patient 4, 3 weeks of treatment, 7.5 mg QD",no side effects attributable to pioglitazone were noted
same,side effects attributable to pioglitazone,"[1]; Patient 5, 2.5 years, 45 mg QD",No side effects attributable to pioglitazone were noted
same,side effects attributable to pioglitazone,"[1]; Patient 6, 5-year course, 30 mg QD",No side effects attributable to pioglitazone were noted
same,side effects (reason for stopping pioglitazone),"[1]; Patient 7, 6 months, 15 then 30 mg QD","concerns of possible association with new-onset bruising, which resolved"
same,side effects attributable to pioglitazone,"[1]; Patient 8, 30-week course, 30 mg QD",No side effects attributable to pioglitazone were noted
same,reductions in hospitalizations for IV albumin infusions and diuresis,[1]; Responders,100%
same,children with worsening edema after pioglitazone introduction,[1]; all 8 patients,0%
same,hospitalizations for IV albumin infusions to manage NS-related edema,"[1]; all 8 patients, 5-7 months post-pioglitazone, 13 in the 5-7 months pre-pioglitazone",1
same,adverse events attributable to pioglitazone,"[1]; all patients, collective 136 months of drug exposure",no patients experienced any adverse events attributable to pioglitazone
same,pioglitazone-related hypoglycemia,"[1]; all patients, observation period",no children with NS were noted to have pioglitazone-related hypoglycemia
same,"Renal Survival, % survival",[2]; 3 Non-responders,33.3%
same,"Renal Survival, % survival",[2]; 5 Responders,100%
same,Renal Survival,[2]; Patient 1 (Responder),yes
same,renal function,"[2]; Patient 1, during pioglitazone treatment",maintained normal renal function
same,Renal Survival,[2]; Patient 2 (Responder),yes
same,renal function,"[2]; Patient 2, during pioglitazone treatment",maintained normal renal function
same,PRED dose after taper,"[2]; Patient 2, orally QD, from 30 mg/d",5 mg
same,remission,"[2]; Patient 2, pioglitazone 15 mg orally QD for 16 weeks",achieved full remission
same,Renal Survival,[2]; Patient 3 (Responder),yes
same,Prednisone dose after decrease,"[2]; Patient 3, from 40 mg/d",20 mg/day
same,Renal Survival,"[2]; Patient 4 (Non-responder), cFSGS, AKI at presentation",no
same,renal function,"[2]; Patient 4, during pioglitazone treatment",renal function continued to worsen
same,Renal Survival,[2]; Patient 5 (Non-responder),yes
same,NS relapses,"[2]; Patient 5, on pioglitazone for 2.5 years",continued to have NS relapses
same,Renal Survival,[2]; Patient 6 (Responder),yes
same,serum creatinine,"[2]; Patient 6, on MMF and pioglitazone",0.90 mg/dL
same,Renal Survival,[2]; Patient 7 (Non-responder),no
same,renal function,"[2]; Patient 7, pre-pioglitazone eGFR 44 ml/min/1.73 m^2",remained stable during the 6 months of pioglitazone treatment
same,Renal Survival,[2]; Patient 8 (Responder),yes
same,renal function,"[2]; Patient 8, during pioglitazone treatment",renal function remained normal
same,remission,"[2]; Patient 8, following 5-7 months",remained in complete remission
same,PRED dose after taper,"[2]; Patient 8, from 25 mg/d",10 mg/day
same,"UPCR in Responders, range",[3]; 5-7 months post-pioglitazone,0.06 to 0.5 mg/mg
same,Patients with prompt and significant reductions in proteinuria (Responders),"[3]; Five of 8 pioglitazone-treated patients, UPCR decrease 0-1 mo pre- to 0-1 mo post-pioglitazone",63%
same,Post-PIO UPCR (0-1 mo; mg/mg),[3]; [4],4 mg/mg
same,Post-PIO UPCR (5-7 mo; mg/mg),[3]; [4],0.2 mg/mg
same,% UPCR Reduction (0-1 mo),[3]; [5],53% and 52.9%
same,% UPCR Reduction (5-7 mo),[3]; [5],98% and 97.6%
same,Post-PIO UPCR (0-1 mo; mg/mg),[3]; [6],2 mg/mg
same,Post-PIO UPCR (5-7 mo; mg/mg),[3]; [6],0.12 mg/mg
same,% UPCR Reduction (0-1 mo),[3]; [7],67% and 66.7%
same,% UPCR Reduction (5-7 mo),[3]; [7],98%
same,Post-PIO UPCR (0-1 mo; mg/mg),[3]; [8],6.4 mg/mg
same,Post-PIO UPCR (5-7 mo; mg/mg),[3]; [8],0.5 mg/mg
same,% UPCR Reduction (0-1 mo),[3]; [9],43% and 42.9%
same,% UPCR Reduction (5-7 mo),[3]; [9],96% and 95% and 95.5%
same,UPCR increase,"[3]; Patient 4 (Non-responder), over the next 1 month",133%
same,Post-PIO UPCR (0-1 mo; mg/mg),"[3]; Patient 4 (Non-responder), pre-PIO 28.8, urine obtained soon after IV albumin infusion",67.0 mg/mg and 67 mg/mg
same,% UPCR Reduction (0-1 mo),"[3]; Patient 4 (Non-responder), vs 0-1 mo pre-PIO",−133%
same,UPCR increase,"[3]; Patient 5 (Non-responder), 1-month post-PIO",139%
same,increase in proteinuria (UPCR),"[3]; Patient 5 (Non-responder), 5-7 months post-pioglitazone",24%
same,Post-PIO UPCR (0-1 mo; mg/mg),[3]; [10],1.1 mg/mg
same,Post-PIO UPCR (5-7 mo; mg/mg),[3]; [10],0.57 mg/mg
same,% UPCR Reduction (0-1 mo),[3]; [11],−139%
same,% UPCR Reduction (5-7 mo),[3]; [11],−23.9%
same,Post-PIO UPCR (0-1 mo; mg/mg),[3]; [12],1.09 mg/mg
same,Post-PIO UPCR (5-7 mo; mg/mg),[3]; [12],0.11 mg/mg
same,% UPCR Reduction (0-1 mo),[3]; [13],50% and 49.5%
same,% UPCR Reduction (5-7 mo),[3]; [13],95% and 94.9%
same,increase in proteinuria (UPCR),"[3]; Patient 7 (Non-responder), 5-7 months post-pioglitazone",77%
same,UPCR increase,"[3]; Patient 7 (Non-responder), over the next 1 month",13%
same,Post-PIO UPCR (0-1 mo; mg/mg),[3]; [14],8.5 mg/mg
same,Post-PIO UPCR (5-7 mo; mg/mg),[3]; [14],13.3 mg/mg
same,% UPCR Reduction (0-1 mo),[3]; [15],−13.3%
same,% UPCR Reduction (5-7 mo),[3]; [15],77.3%
same,Post-PIO UPCR (0-1 mo; mg/mg),[3]; [16],0.08 mg/mg
same,Post-PIO UPCR (5-7 mo; mg/mg),[3]; [16],0.06 mg/mg
same,% UPCR Reduction (0-1 mo),[3]; [17],98% and 98.3%
same,% UPCR Reduction (5-7 mo),[3]; [17],99% and 98.7%
same,"Post-PIO UPCR (0-1 mo; mg/mg), Mean (SEM)",[3]; [18],2.7 mg/mg and 2.71 mg/mg
same,"Post-PIO UPCR (5-7 mo; mg/mg), Mean (SEM)",[3]; [18],0.2 mg/mg and 0.20 mg/mg
same,"% UPCR Reduction (0-1 mo), Mean (SEM)",[3]; [19],62% and 62.1%
same,"% UPCR Reduction (5-7 mo), Mean (SEM)",[3]; [19],97%
same,"Post-PIO UPCR (5-7 mo; mg/mg), Mean (SEM)",[3]; mean of Non-responders (Patient 4 ESRD),6.94 mg/mg
same,"% UPCR Reduction (5-7 mo), Mean (SEM)",[3]; mean of Non-responders (Patient 4 NA),−50.6%
same,"Post-PIO UPCR (0-1 mo; mg/mg), Mean (SEM)","[3]; mean of Non-responders, pre-PIO 12.3",25.5 mg/mg
same,"% UPCR Reduction (0-1 mo), Mean (SEM)","[3]; mean of Non-responders, vs 0-1 mo pre-PIO",−95.0%
same,"UPCR reduction in Responders, range",[3]; within the first month of pioglitazone treatment,43-98%
same,"UPCR in Responders, range","[3]; within the first month of pioglitazone treatment, pre range 2.2-11.2",0.1 to 6.4 mg/mg

# From patent US20250281507A1, “METHODS OF TREATING NEPHROTIC SYNDROME” (The Research Institute at Nationwide Children's Hospital, priority 2021, published 2025)
